Experimental data: paper PMC11025159 (Journal of Translational Medicine, 2024)
pIC50: −log10 of the molar value.

Assays:
[1] = test system: A549; test: MTT cell viability assay A549; format: cell-based, human; conditions: 48 h
Method: (§1) Cell viability was evaluated using an MTT colorimetric assay. Cells were seeded (10^5 cells/mL) in 96-well plates and allowed to grow overnight at 37 ℃ with 5% CO2 in a cell-culture incubator. On the following day, the cells were treated with small molecules at different concentrations (0.2–10 micro-molar) or vehicle (DMSO). Cells were then further incubated for 48 h.

[2] = test system: HEK-293; test: MTT cell viability assay HEK-293; format: cell-based, human; conditions: read-out: IC50 HEK-293; MTT, 48 h; normal cell line
Method: as §1

[3] = test system: MCF-7; test: MTT cell viability assay MCF-7; format: cell-based, human; conditions: 48 h
Method: as §1

[4] = test system: Panc-2; test: MTT cell viability assay Panc-2; format: cell-based; conditions: 48 h
Method: as §1

[5] = test system: Mia PaCa-2; test: MTT cell viability assay Mia PaCa-2; format: cell-based, human; conditions: 48 h
Method: as §1

[6] = target: T1, JAK3 (Homo sapiens, UniProt P52333); test: Cell-free kinase assay JAK3; format: biochemical; conditions: structure-activity statement
T1 construct: purchased Promega Corporation V3701
T1 sequence (P52333 1-1124): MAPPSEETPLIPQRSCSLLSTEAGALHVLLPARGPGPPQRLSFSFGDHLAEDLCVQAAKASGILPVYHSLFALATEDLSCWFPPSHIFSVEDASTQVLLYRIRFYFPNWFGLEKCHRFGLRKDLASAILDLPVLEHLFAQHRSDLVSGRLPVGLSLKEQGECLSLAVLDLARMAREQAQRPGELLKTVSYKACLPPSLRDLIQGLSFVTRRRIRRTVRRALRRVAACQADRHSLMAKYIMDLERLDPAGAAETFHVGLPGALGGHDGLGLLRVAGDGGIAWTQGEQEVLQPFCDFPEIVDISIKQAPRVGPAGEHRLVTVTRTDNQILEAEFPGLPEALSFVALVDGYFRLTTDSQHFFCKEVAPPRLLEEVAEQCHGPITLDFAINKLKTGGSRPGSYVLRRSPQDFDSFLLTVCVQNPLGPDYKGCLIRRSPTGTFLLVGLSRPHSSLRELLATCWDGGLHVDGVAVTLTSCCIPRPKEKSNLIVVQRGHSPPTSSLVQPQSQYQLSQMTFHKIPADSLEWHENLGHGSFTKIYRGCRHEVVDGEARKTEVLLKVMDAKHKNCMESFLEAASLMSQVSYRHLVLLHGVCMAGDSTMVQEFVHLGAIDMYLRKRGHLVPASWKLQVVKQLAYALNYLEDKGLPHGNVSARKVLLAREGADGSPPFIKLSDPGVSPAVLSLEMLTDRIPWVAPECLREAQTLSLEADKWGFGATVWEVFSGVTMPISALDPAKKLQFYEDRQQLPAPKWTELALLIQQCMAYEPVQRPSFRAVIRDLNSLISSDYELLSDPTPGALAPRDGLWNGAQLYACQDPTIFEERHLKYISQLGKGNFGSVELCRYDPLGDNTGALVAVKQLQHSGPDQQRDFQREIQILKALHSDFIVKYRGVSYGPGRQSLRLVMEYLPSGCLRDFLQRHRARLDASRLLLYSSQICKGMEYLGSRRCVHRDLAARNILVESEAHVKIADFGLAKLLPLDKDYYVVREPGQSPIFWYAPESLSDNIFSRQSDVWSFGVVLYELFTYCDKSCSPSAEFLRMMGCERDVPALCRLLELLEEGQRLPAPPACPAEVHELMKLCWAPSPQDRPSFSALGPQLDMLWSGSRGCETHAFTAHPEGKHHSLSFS
Method: The cell-free kinase assays of small molecules were determined by following the manufacturer-recommended protocols. Different concentrations in triplicate were used to determine the IC50 value of the hit molecules (active molecules). For data analysis, GraphPad Prism V9.5 Software and a sigmoidal dose–response (variable slope) equation were used. Each value represents an average of three replicates per concentration.

[7] = test system: HCT-116; test: MTT cell viability assay HCT-116; format: cell-based, human; conditions: 48 h
Method: as §1

Row | SMILES | pIC50 [1] | pIC50 [3] | pIC50 [4] | pIC50 [5] | inhibitory activity against JAK3 in kinase assays and in MTT assays [6] | pIC50 [7] | pIC50 [2]
1 | CSc1ccccc1-c1cnc2[nH]cc(-c3ccnc(NC4CC4)n3)c2c1 [MJ03] | 5.54 | 4.99 | 4.96 | 4.74 | significant inhibitory activity | 5.09 | < 4.00
2 | CSc1ccc(-c2cnc3[nH]cc(-c4ccnc(NC5CC5)n4)c3c2)cc1 [MJ02] | 5.50 | 5.74 | 5.33 | 5.15 | significant inhibitory activity | 5.51 | < 4.00
3 | c1coc(-c2cnc3[nH]cc(-c4ccnc(NC5CC5)n4)c3c2)c1 [MJ01] | 6.33 | 5.78 | 5.50 | 5.08 | significant inhibitory activity | 5.72 | < 4.00
4 | Clc1ccc(-c2cnc3[nH]cc(-c4ccnc(NC5CC5)n4)c3c2)cc1 [MJ05] | 5.43 | 5.35 | 5.11 | 5.18 | significant inhibitory activity | 5.06 | < 4.00

Further lines, with some results ahead:

Row | pIC50 [1] | pIC50 [3] | pIC50 [4] | pIC50 [5] | inhibitory activity against JAK3 in kinase assays and in MTT assays [6] | pIC50 [7] | SMILES | pIC50 [2]
5 | 5.16 | 5.06 | 4.47 | 5.17 | significant inhibitory activity | 5.27 | Fc1ccc(-c2cnc3[nH]cc(-c4ccnc(NCCN5CCOCC5)n4)c3c2)cc1 [MJ10] | < 4.00
6 | 5.37 | 5.48 | 5.13 | 5.44 | significant inhibitory activity | 5.82 | Fc1cccc(-c2cnc3[nH]cc(-c4ccnc(NC5CC5)n4)c3c2)c1 [MJ06] | < 4.00
7 | 5.24 | 4.94 | 4.58 | 5.67 | significant inhibitory activity | 5.49 | c1cncc(-c2cnc3[nH]cc(-c4ccnc(NCCN5CCOCC5)n4)c3c2)c1 [MJ09] | < 4.00
8 | 5.29 | 5.16 | 4.71 | 5.27 | less active | 5.93 | Nc1nccc(-c2c[nH]c3ncc(-c4cccc(C(F)(F)F)c4)cc23)n1 [MJ08] | < 4.00
9 | 5.26 | 5.86 | 5.51 | 5.49 | less active | 5.20 | Nc1nccc(-c2c[nH]c3ncc(-c4cccc(F)c4)cc23)n1 [MJ07] | < 4.00
